Source: patent US9226918B2, “Methods and compositions for treating or preventing narcotic withdrawal symptoms” (The Board of Trustees of the Leland Stanford Junior …, priority 2008, dated 2016)
“Also recorded” adds a separate entry of the source.

Tests used:
Assay type in all cases: in vivo
Htr3b mRNA = Htr3b mRNA expression in brain after chronic morphine (specificity control); conditions: brain tissue, four days of morphine versus saline, C57Bl/6J and 129/SvlmJ mice
C57BL/6J mice [1] = assay: Conditioned place preference (CPP) associated with morphine
Protocol: The CPP experiments were performed using Place Preference System (MED Associates Inc., St. Albans, Vt.), which consists of three compartments; two outer compartments for active association and a middle neutral compartment. One association compartment is constructed of white opaque plastic walls with a floor made of metal rods while the other compartment is made of black opaque plastic walls with a metal mesh floor. The smaller middle neutral compartment is made of gray opaque plastic walls and floor. Experiments were conducted in a dimly lit room with homogenous lighting (˜20 lux). The place preference apparatus is equipped with motion photo-sensors with data recorded via a computer running MED PC software (MED Associates Inc, Vt.). C57B1/6J mice (8 to 12 weeks old) were used in all experiments, which were carried out during the second half of the light phase between 13:00-18:00 hr. On Day 0, the mice were acclimated to the test room and the time spent in each compartment was recorded (pre-conditioning report). Any mouse that spent more than 75% of the time in either of the association compartments was excluded. On the following day each mouse was randomized to a control or drug group and assigned to either the white or black association compartments in a counter-balanced fashion (n=10-15 per group). […] Twenty-five minutes after injection(s), each mouse was placed into its assigned association compartment for 25 min without access to the other compartments. On Days 2, 4 and 6, the mice received saline injections and were placed in the alternative compartment after 25 min. On Day 7, mice were placed in the middle neutral compartment of the place preference apparatus with full access to the other two compartments and assessed for the length of time spent in each compartment (post-conditioning report). The percentage of time spent in each association compartment was calculated relative to the total time spent in both association compartments.

morphine-dependent mice = assay: Naloxone-precipitated withdrawal jumping in morphine-dependent mice
Protocol: After naloxone administration, mice were placed in clear plastic cylinders (10 cm in diameter and 40 cm in height, and the number of jumps during the following 15 minutes were counted. Naloxone precipitated jumping behavior is a robust response reflecting physical dependence on opioids observed across strains of inbred mice (Kest, B., et al., Neuroscience 2002. 115(2): 463-469).
(§1) In some experiments the selective 5-HT3 antagonist ondansetron (Sigma) was administered. For systemic administration, ondansetron was injected subcutaneously in […] of 0.9% NaCl to some groups of mice. […] For intracerebroventricular (i.c.v.) administration, mice were briefly anesthetized with inhaled isoflurane. A 30 gauge ½ inch needle was used to pierce the skull and enter the ventricles using an approach described previously (Pedigo, N. W. et al. J Pharmacol Exp Ther, 1975. 193(3): p. 845-852). Once inserted, 5 μl of injectate was slowly administered using a microsyringe, and the animals were used within 20 minutes after the injection.

C57BL/6J mice [2] = assay: Opioid dependence related hyperalgesia, mechanical nociceptive threshold (von Frey filaments)
Protocol: as §1
In these experiments, mice were placed on wire mesh platforms in clear cylindrical plastic cylinders. After 15 minutes of acclimation, fibers of sequentially increasing stiffness were applied to the plantar surface of one hind paw, pressed upward to cause a slight bend in the fiber and left in place 5 sec. Withdrawal of the hind paw from the fiber was scored as a response. When no response was obtained the next stiffest fiber in the series was applied to the same paw; if a response was obtained a less stiff fiber was applied. Testing proceeded in this manner until 4 fibers had been applied after the first one causing a withdrawal response allowing the estimation of the mechanical withdrawal threshold (Poree, L. R., et al., Anesth Analg, 1998. 87(4): p. 941-948).

healthy male volunteers = assay: Acute naloxone-precipitated opioid withdrawal in human volunteers after ondansetron pretreatment (OOWS, SOWS)
From the text: Eight healthy male volunteers underwent an acute precipitated narcotic drug withdrawal protocol as previously described (Compton, P., et al., Pharmacol Biochem Behav, 2004. 77(2): p. 263-268) with or without ondansetron pretreatment using a randomized double-blinded placebo-controlled crossover study design on two separate occasions. Test sessions for each individual subject were separated by at least seven days. Female volunteers were excluded from the study due to modulation of opioid response by menstruation cycles (Hoehe, M., Psychoneuroendocrinology, 1988. 13(4): p. 339-344). The human experimental protocol was approved by the Institutional Review Board (Stanford University). Each volunteer provided written informed consent prior to study enrollment, and the study was registered in the clinicaltrials.gov database (identifier NCT00661674).
All study sessions were conducted by a blinded research assistant (ND) and supervised by an un-blinded physician (LC) who administered the study medication and monitored heart rate, blood pressure and arterial oxygenation throughout the study. The subjective opioid withdrawal scale (SOWS) and objective opioid withdrawal scale (OOWS) were completed after establishing intravenous access and before administration of study medications, as originally described by Handelsman et al (Handelsman, L., et al., Am J Drug Alcohol Abuse, 1987. 13(3): p. 293-308). All OOWS measurements were obtained by the same blinded research assistant (ND). Ondansetron (Bedford Laboratories, Bedford, Ohio) 8 mg or placebo (0.9% saline solution, Hospira Inc., Lake Forest, Ill.) was administered in a double-blinded fashion as an IV bolus. […] Patients remained in the lab under observation for 105 minutes and were offered music or video entertainment and caffeine-free meals or snacks ad lib during this period of time. After 105 minutes, the patient's vital signs and OOWS and SOWS were reassessed. […] Vital signs, SOWS and OOWS were administered five minutes and fifteen minutes after the naloxone administration.
Animal behavioral data was analyzed using one or two-way ANOVA with post-hoc Tukey testing or, for conditioned place preference data with t-testing. The outcome measures of interest between the placebo- and ondansetron-treated groups were compared using paired t test and the Wilcoxon Signed Rank test where appropriate. Normal distribution was determined using QQ plots and the Kolmogorov-Smirnov test. Analyses were performed with SAS 9.1 statistical package (Cary, Ill.) with p<0.05 considered statistically significant.

male volunteers = assay: Naloxone-induced withdrawal in human volunteers, palonosetron alone or with hydroxyzine; conditions: palonosetron 0.75 mg IV alone, 12 male volunteers
Protocol: In these studies, palonosetron (a 5-HT3 antagonist) was administered alone, or in combination with a clinically available antihistamine (hydroxyzine) to human volunteers.

[3] = ondansetron 8 mg IV 30 minutes prior to morphine 10 mg/70 kg IV, naloxone 120 minutes after morphine, versus placebo

Structure (SMILES): CN1CC[C@]23c4c5ccc(O)c4O[C@H]2[C@@H](O)C=C[C@H]3[C@H]1C5 [morphine]
- expression of the Htr3b gene (Htr3b mRNA): not altered
- mean difference between pre and post conditioning percentage of time spent in the compartment associated with drug (C57BL/6J mice [1]; morphine 5 mg/kg i.p., placed in conditioning chamber 25 min after injection): 21.29%
- jumps in the 15 minute period following naloxone administration (morphine-dependent mice; BUB/BnJ mice made dependent on morphine over a 4-day period): over 100
- jumps in the 15 minute period following naloxone administration (morphine-dependent mice; SM/J mice made dependent on morphine over a 4-day period): one
- hyperalgesia after chronic morphine treatment (C57BL/6J mice [2]; C57BL/6J mice, four day morphine protocol): caused hyperalgesia

Structure (SMILES): Cc1nccn1CC1CCc2c(c3ccccc3n2C)C1=O (stereo not drawn) [ondansetron]
- mean difference between pre and post conditioning percentage of time spent in the compartment associated with drug (C57BL/6J mice [1]; ondansetron 1 mg/kg in addition to morphine 5 mg/kg, i.p.): 0.40%
- place preference associated with morphine administration (C57BL/6J mice [1]; ondansetron 1 mg/kg plus morphine 5 mg/kg): completely blocked
- naloxone-precipitated withdrawal response (morphine-dependent mice; C57BL/6J mice, ondansetron 1 mg/kg with each morphine dose during 4-day protocol, tested 18 hours after final dose (FIG. 3B)): diminished the naloxone-precipitated withdrawal response
- inhibition of naloxone-precipitated withdrawal (morphine-dependent mice; morphine-dependent C57BL/6J mice, ondansetron 1 mg/kg given acutely): not able to effectively inhibit withdrawal
- naloxone-precipitated jumping behavior (morphine-dependent mice; morphine-dependent C57BL/6J mice, ondansetron i.c.v. before naloxone (FIG. 3C)): profoundly blocked; also recorded: statistically significant and dose-dependent reduction
- naloxone-induced jumping (morphine-dependent mice; morphine-dependent C57BL/6J mice, ondansetron s.c. once, range of doses, 30 minutes prior to testing (FIG. 3A)): significantly reduced; also recorded: statistically significant and dose-dependent reduction
- decrease in mean OOWS score (healthy male volunteers; [3]): 76.4%±22.6
- mean decrease in the subjective symptoms (SOWS score) (healthy male volunteers; [3]): 4.1%±62.5
- individual OOWS signs manifested by the volunteers (healthy male volunteers; ondansetron 8 mg IV pre-treatment, 12 of the 13 measured signs manifested): decreased all 12 of these individual signs
- objective signs of opioid withdrawal in affected subjects (healthy male volunteers; ondansetron 8 mg IV pre-treatment, seven of 8 subjects developed signs): reduced these signs in all seven affected individuals
- pain sensitivity / baseline nociceptive thresholds (C57BL/6J mice [2]; control mice not treated with morphine, ondansetron 30 minutes prior to threshold assessment): no effect on pain sensitivity; also recorded: did not alter baseline nociceptive thresholds
- hyperalgesia (mechanical nociceptive sensitization) during morphine abstinence (C57BL/6J mice [2]; morphine-dependent mice, 18 hours after last morphine dose, ondansetron 30 minutes prior to threshold assessment (FIG. 4)): reversed the hyperalgesia; also recorded: dose-dependently reversed

Structure (SMILES): O=C1c2cccc3c2[C@H](CCC3)CN1[C@@H]1CN2CCC1CC2 [palonosetron]
- naloxone-induced withdrawal symptoms relative to placebo control (male volunteers): reduced the naloxone-induced withdrawal symptoms
